{
  "source": "patent US11160767B2",
  "about": "“4,4′-trans-dihydroxystilbene for use in treating cancer” (The George Washington University, a Congressionally …, priority 2017, dated 2021)",
  "key": {"KB, KB-Gem and KB-Hu": {"tested_on": "KB, KB-Gem and KB-Hu", "test": "Cell survival of KB and resistant sublines", "type": "cell-based", "protocol": "An oral cancer cell line, KB, and its gemcitabine-resistant and hydroxyurea resistant sublines, KB-Gem and KB-Hu, respectively, were treated with gemcitabine (FIG. 15A), hydroxyurea (FIG. 15B), or DHS (FIG. 15C).\nNext, the effect of combined treatment with DHS and Gemcitabine or Hydroxyurea was investigated."}, "HCT116": {"tested_on": "HCT116", "test": "In vitro cytotoxicity (SRB assay), HCT116", "type": "cell-based", "conditions": "Homo sapiens, HCT-116, 72 hours", "protocol": "(§1) Cell lines and cell culture. HCT116, U205, PANC-1, MDA-231 cell lines were purchased from the American Type Culture Collection (Rockville, Md., US). Cells were cultured in the DMEM medium (Lonza, Basel, Switzerland) containing 10% fetal bovine serum (Gibco, Grand Island, N.Y., US), 100 Units/ml penicillin, 100 Units/mL streptomycin, […] L-glutamine (Gibco, Grand Island, N.Y., US) at 37° C. in a humidified atmosphere with 5% CO2.\n(§2) In vitro cytotoxicity assays. […] SRB assay (Vichai and Kirtikara, 2006) was performed and the absorbance at 510 nm was read with a plate reader. The proliferation rate was calculated according to the Manufacturer's instruction. The IC50 value for each compound was determined from dose-effect relationship using the CompuSyn software (version 1.0.1; CompuSyn, Inc, Paramus, N.J.) (Chou, 2006). Cell proliferating doubling time was monitored over a period of 72 hours."}, "HCT116 xenograft tumor": {"tested_on": "HCT116 xenograft tumor", "test": "HCT116 xenograft tumor model", "type": "in vivo, nude mice", "conditions": "Day 38; DHS 50 mg/kg i.p. 14 consecutive days; cisplatin 8 mg/kg i.p.", "procedure": "Xenograft mouse models. […] In xenograft studies, HCT116 (3×10^6 cells) and IGROV3/CP2 (5×10^6 cells) suspended in 100 μl of phosphate buffered saline (PBS, pH 7.4) were injected subcutaneously into the lower flank of the mice. Testing compounds were dissolved in DMSO/Tween 80/saline (10:10:80; v/v/v) buffer and were used to treat animals through intraperitoneal (i.p.) injection. […] The body weight of animals was measured throughout the study. Tumor diameters were measured with digital calipers, and the tumor volume in mm^3 was calculated by the formula: Volume=(width)^2×length/2.\nHCT116 cells (5×10^6) were injected subcutaneously in nude mice and grown to approximately 100 mm^3 in volume. […] To study the preclinical toxicity of DHS, samples of hearts, livers, spleens, lung, and kidneys were collected on Day 38 and sections were stained for histological examination."}, "HCT116 cells [1]": {"tested_on": "HCT116 cells", "test": "Cell-cycle assay", "type": "cell-based, human", "conditions": "10 μM", "protocol": "A cell-cycle assay was conducted to study whether DHS would affect cell-cycle progression."}, "PANC-1": {"tested_on": "PANC-1", "test": "In vitro cytotoxicity (SRB assay), PANC-1", "type": "cell-based", "conditions": "Homo sapiens, 72 hours", "protocol": "as §1, §2"}, "[2]": {"target": "T1, truncated-RRM2 protein (deletion of GLU147 to ILE166) (Homo sapiens, UniProt P31350, DEL147-166)", "T1 construct": "expressed in transfected cells; host or cells: HCT116", "T1 sequence (P31350 with tags, fused parts or gaps DEL147-166)": "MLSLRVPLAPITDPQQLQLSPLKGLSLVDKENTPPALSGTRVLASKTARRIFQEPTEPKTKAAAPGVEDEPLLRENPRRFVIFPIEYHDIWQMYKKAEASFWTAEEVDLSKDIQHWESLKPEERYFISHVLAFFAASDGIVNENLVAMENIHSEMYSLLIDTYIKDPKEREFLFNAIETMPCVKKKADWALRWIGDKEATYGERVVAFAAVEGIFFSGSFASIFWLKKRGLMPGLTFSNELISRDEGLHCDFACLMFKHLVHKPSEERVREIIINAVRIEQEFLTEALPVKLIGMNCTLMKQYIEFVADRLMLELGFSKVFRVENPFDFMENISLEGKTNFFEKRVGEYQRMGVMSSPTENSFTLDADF", "test": "Thermal shift assay, truncated RRM2", "type": "cell-based", "conditions": "HCT116 cells", "text": "To verify the DHS binding site on RRM2, a RRM2 construct with a deletion of GLU147 to ILE166 was generated. […] Since Hu is also known to interact with RRM2 protein, the effect of DHS on Hu binding to RRM2 was investigated using a cellular thermal shift assay with KB-Hu (an Hu resistant oral cancer cell line)."}, "SKOV3": {"tested_on": "SKOV3", "test": "DHS and cisplatin, SKOV3 cells", "type": "cell-based, human", "text": "The effect of DHS on a human SKOV3 ovarian cell line and its cisplatin-resistant subline, SKOV3/CP7, was investigated."}, "HCT116 cells [3]": {"tested_on": "HCT116 cells", "test": "BrdU incorporation by FACS", "type": "cell-based, human", "conditions": "reduced from 46.6%, 1 to 20 μM DHS", "text": "To test whether DHS can repress DNA replication, BrdU incorporation was examined using an immunofluorescent assay. […] BrdU incorporation was tracked by fluorescence-activated cell sorting (FACS)."}, "[4]": {"tested_on": "phosphor-Chk1 (pChk1, Serine 345)", "test": "DNA damage markers by Western blot", "type": "cell-based, human", "conditions": "HCT116 cells, 10 μM for 20 minutes", "protocol": "Western blot analysis. Compound-treated cells were harvested and lysed. Protein extracts were subjected to electrophoresis in a SDS-polyacrylamide gel. The resolved proteins were transferred onto polyvinylidene difluoride membranes (Amersham Biosciences, Piscataway, N.J., US). After the blocking step, membranes were incubated with primary IgG antibodies, washed, and then incubated with horseradish peroxidase-conjugated anti-rabbit IgG or anti-mouse IgG secondary antibodies. Western blot signals were visualized by chemiluminescence using SuperSignal West Pico chemiluminescence reagent (Pierce, Rockford, Ill., US).\nTo investigate whether inhibition of DNA replication by DHS can trigger DNA damage, the DNA damage markers phosphor-Chk1 (pChk1, Serine 345) and phosphor-Chk2 (pChk2, Threonine 68) were analyzed in DHS-treated HCT116 cells. […] A comet assay was next used to test if DNA double strand breaks are induced by DHS."}, "RRM2": {"target": "T2, RRM2 (Homo sapiens, UniProt P31350)", "T2 construct": "endogenous in cells; host or cells: HCT116", "T2 sequence (P31350 1-389)": "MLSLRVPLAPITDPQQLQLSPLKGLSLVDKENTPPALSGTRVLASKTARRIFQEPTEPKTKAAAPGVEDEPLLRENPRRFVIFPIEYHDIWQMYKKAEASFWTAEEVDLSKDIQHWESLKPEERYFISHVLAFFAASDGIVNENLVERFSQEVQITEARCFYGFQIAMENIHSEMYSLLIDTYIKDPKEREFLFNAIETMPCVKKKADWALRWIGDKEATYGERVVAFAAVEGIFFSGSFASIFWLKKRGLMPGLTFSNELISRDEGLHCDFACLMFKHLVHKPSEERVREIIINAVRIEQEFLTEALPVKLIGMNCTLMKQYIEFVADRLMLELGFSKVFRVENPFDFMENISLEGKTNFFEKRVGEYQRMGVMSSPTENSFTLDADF", "test": "Ubiquitination assay", "type": "cell-based", "conditions": "HCT116 cells, with MG-132 pre-treatment", "protocol": "It was next investigated whether treatment with DHS leads to reduced levels of RRM2 through the proteasome degradation pathway. […] To confirm whether degradation of RRM1 is dependent on RRM2, RRM1 or RRM2 expression was knocked down by treatment with siRNAs and resultant protein amounts were detected. […] Next, a ubiquitination assay with MG-132 pre-treatment was performed to determine whether a ubiquitination reaction is involved in DHS-mediated RRM2 degradation. […] According to the literature, Cyclin F is the E3 ligase that ubiquitinates RRM2 (D'Angiolella et al., 2012). Thus, the amount of RRM2 in cells was determined after knockdown of Cyclin F by siRNA. […] Cell viability after DHS exposure was also investigated in cells in which either RRM2 or Cyclin F expression was knocked down by siRNA."}, "Topoisomerase II": {"tested_on": "Topoisomerase II", "test": "Topoisomerase II decatenation assay", "type": "biochemical", "text": "In addition, resveratrol has been previously reported to interact with DNA grooves (Usha et al., 2006). […] A similar result with And-1, RRM1, and RRM2 was also observed in DHS resistant HCT116 cells (data not shown)."}, "[5]": {"tested_on": "phosphorylated histone 2AX", "test": "γH2AX immunostaining", "type": "cell-based, human", "conditions": "HCT116 cells, 10 μM for 12 hours"}},
  "data": [
    {"smiles": "Oc1ccc(/C=C/c2ccc(O)cc2)cc1", "note": "[DHS, 4,4′-trans-dihydroxystilbene]", "values": [
      {"measurement": "Cell survival of resistant sublines", "setting": "KB, KB-Gem and KB-Hu; KB, KB-Gem, KB-Hu, DHS alone", "result": "overcame gemcitabine and hydroxyurea resistance"},
      {"measurement": "Resensitisation to gemcitabine and hydroxyurea", "setting": "KB, KB-Gem and KB-Hu; KB-Gem and KB-Hu, 10 μM DHS", "result": "resensitized cultured KB-gem and KB-Hu cell lines to gemcitabine and hydroxyurea"},
      {"measurement": "IC50", "setting": "HCT116", "result": "2.3 ± 0.78", "unit": "µM"},
      {"measurement": "Reduction in tumor volume as compared with the vehicle control group", "setting": "HCT116 xenograft tumor", "result": "~50", "unit": "%"},
      {"measurement": "Effect on cell-cycle progression", "setting": "HCT116 cells [1]", "result": "robust S-phase arrest"},
      {"measurement": "IC50", "setting": "PANC-1", "result": "22 ± 6.42", "unit": "µM"},
      {"measurement": "Thermal stability of truncated RRM2", "setting": "[2]", "result": "not able to maintain thermal stability of the truncated-RRM2 protein"},
      {"measurement": "Sensitivity to DHS alone", "setting": "SKOV3", "result": "sensitive to DHS treatment alone"},
      {"measurement": "BrdU incorporation", "setting": "HCT116 cells [3]", "result": 9.52, "unit": "%"},
      {"measurement": "DNA damage (phosphorylated CHK1, pSerine 345)", "setting": "[4]", "result": "more potent than resveratrol and the other analogs"},
      {"measurement": "Ubiquitinated RRM2", "setting": "RRM2", "result": "ubiquitinated RRM2 was increased by DHS treatment"},
      {"measurement": "Topoisomerase II activity (decatenation of kDNA)", "setting": "Topoisomerase II", "result": "inhibits Topoisomerase II activity"},
      {"measurement": "Levels of γH2AX", "setting": "[5]", "result": "Increased levels of phosphorylated histone 2AX"}
    ]}
  ]
}
